Reference: patent US12544361B2, “Composition comprising at least one oxazoline for inhibiting the growth of Malassezia yeasts involved in cradle cap, in particular” (Laboratoires Expanscience, priority 2019, dated 2026)
Values after ≈ are worked out from the molar mass of the structure shown.

Key:
Format in all cases: cell-based
[1] = system: Malassezia furfur (CIP 1634.86); assay: MIC in solid medium by agar dilution method; conditions: CIP1634, strain CIP 1634.86
Description: Protocol: the minimum inhibitory concentration (MIC) of a strain of Malassezia furfur (CIP 1634.86) against cycloceramide OX100 is determined in solid medium by agar dilution method according to COURVALIN P., GOLDSTEIN F., PHILIPPON A. and SIROT J.-Fiche technique 5—L'antibiogramme, édition MPC, 1985, p. 199.

[2] = system: Malassezia furfur (ATCC 14521); assay: MIC of cycloceramide OX100 in liquid medium, 96-well plates (GLYcoDiag technology); conditions: 48 hours at 32.5° C., about 5.20-10^4 cfu/mL per well, strain ATCC 14521
Description: (§1) The determination of the minimum inhibitory concentration of cycloceramide OX100 is carried out by a procedure adapted to liquid media in 96-well plates. The MIC study is conducted using GLYcoDiag technology, using the microbial strain Malassezia furfur (American Type Culture Collection (ATCC) reference 14521) as the organism. The cultures are reconstituted according to the instructions of the collection center supplying the reference strain.
Preparation of samples and test microorganisms: OX100 cycloceramide is diluted in culture medium to the following concentrations: final concentrations in culture medium (expressed as percentages by volume): 0.25%; 0.125%; 0.0625%; 0.0312%; 0.01562%; 0.0078%.
Analytical controls are prepared and used identically to the sample: • a control corresponding to the microbiological medium alone; • a control consisting of Phenoxyethanol® prepared at 5% (v/v) directly in the microbiological medium associated with each microbial strain.
(§2) In order to determine the MIC of cycloceramide OX100, it is tested in serial dilutions of 6 dilutions directly in the culture medium intended to support the growth of the M. furfur strain (96-well microplates). Then, each dilution point is contaminated with the test strain in an amount of about 5.20-10^4 cfu/mL per well. Finally, the tests are incubated for 48 hours at 32.5° C. […]

[3] = system: Malassezia furfur (ATCC 14521); assay: MIC of arabinogalactan and malic acid diester in liquid medium, 96-well plates (GLYcoDiag technology); conditions: 48 hours at 32.5° C., about 1.30-10^4 cfu/mL per well, strain ATCC 14521
Description: as §1, with “The” for “The determination of the”, “concentration (MIC)” for “concentration”, “arabinogalactan and malic acid diester” for “cycloceramide OX100”, “using” for “by”
Preparation of samples and test microorganisms: the products are diluted in culture medium at the concentrations defined in the table below.
Analytical controls are prepared and used identically to the sample: • a control corresponding to the microbiological medium alone; and • a control consisting of Phenoxyethanol® prepared at 5% (v/v) directly in the microbiological medium associated with each microbial strain.
as §2, with “the product,” for “cycloceramide OX100,”, “promote” for “support”, “1.30-10^4” for “5.20-10^4”, “C.±2.5° C., taking care to respect the respiratory type of the strain which is facultative aero-anaerobic.” for “C.”

Molecule: CCCCCCCCCCCC1=NC(C)(C)CO1 [OX100, 2-undecyl-4,4-dimethyl-1,3-oxazoline]
- MIC [1]: 64 mg/L (≈ 253 µM)
- MIC [2]: 0.031 % (v/v)

Molecule: di-C12-C13-alkyl malate [malic acid diester]
- MIC [3]: 1.25 % (v/v)

Molecule: arabinogalactan
- MIC [3]: 2.5 % (v/v)
